From patent US9227919B2, “Arylalkylamine compounds as calcium sensing receptor modulators” (Lupin Limited, priority 2012, dated 2016)
Counter-ions that a name gives are not always drawn.

molecular target: T1, Calcium Sensing Receptor (CaSR) (Homo sapiens, UniProt P41180); assay: In-vitro assay of calcimimetics through modulation of Calcium Sensing Receptor (intracellular calcium increase, FLIPR); type: cell-based; conditions: stably transfected HEK293 cells expressing hCaSR; Fluo4NW dye; 0.3 mM CaCl2; 8-point assay; read-out: EC50 Range
T1 construct: expressed in transfected cells
T1 sequence (P41180 20-1078): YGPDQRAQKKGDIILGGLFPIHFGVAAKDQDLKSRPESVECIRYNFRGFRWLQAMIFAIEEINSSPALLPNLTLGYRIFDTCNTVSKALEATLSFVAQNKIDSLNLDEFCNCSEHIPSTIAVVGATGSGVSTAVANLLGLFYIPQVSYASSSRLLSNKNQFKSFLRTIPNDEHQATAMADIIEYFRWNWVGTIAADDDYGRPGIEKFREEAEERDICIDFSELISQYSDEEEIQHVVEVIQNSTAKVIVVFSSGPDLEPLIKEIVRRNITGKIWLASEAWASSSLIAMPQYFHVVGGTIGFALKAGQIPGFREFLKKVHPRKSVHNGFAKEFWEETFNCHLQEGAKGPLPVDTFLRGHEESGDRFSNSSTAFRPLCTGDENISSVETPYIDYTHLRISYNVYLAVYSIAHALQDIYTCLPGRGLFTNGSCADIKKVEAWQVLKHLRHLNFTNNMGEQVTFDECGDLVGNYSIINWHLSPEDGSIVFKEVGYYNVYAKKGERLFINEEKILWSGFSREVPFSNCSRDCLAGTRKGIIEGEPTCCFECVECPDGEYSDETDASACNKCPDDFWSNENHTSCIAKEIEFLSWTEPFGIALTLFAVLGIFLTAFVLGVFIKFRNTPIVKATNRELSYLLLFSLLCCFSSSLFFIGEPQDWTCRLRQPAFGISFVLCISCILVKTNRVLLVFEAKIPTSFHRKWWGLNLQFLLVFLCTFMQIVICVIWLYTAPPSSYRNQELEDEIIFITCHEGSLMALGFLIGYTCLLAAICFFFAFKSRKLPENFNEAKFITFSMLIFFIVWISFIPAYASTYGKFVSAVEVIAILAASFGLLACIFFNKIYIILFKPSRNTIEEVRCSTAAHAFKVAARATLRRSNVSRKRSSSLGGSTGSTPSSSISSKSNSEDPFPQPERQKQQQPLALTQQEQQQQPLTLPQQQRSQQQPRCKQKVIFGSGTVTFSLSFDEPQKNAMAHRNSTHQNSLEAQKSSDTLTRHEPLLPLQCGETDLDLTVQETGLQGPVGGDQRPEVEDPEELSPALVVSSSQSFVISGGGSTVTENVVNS
Protocol: Certain illustrative compounds within the scope of the invention are screened for CaSR activity according to the procedure given below. The screening of the compounds may also be carried by other methods and procedures known to skilled in the art.
In-vitro assay method of Calcimimetics through modulation of Calcium Sensing Receptor (CaSR):
The ability of the compounds to modulate Calcium sensing receptor is determined by measuring an increase in intracellular calcium [Ca^2+]i. Stably transfected HEK293 cells expressing hCaSR_pTriEx-3 hygro vector are developed. Cells are grown overnight on a 96-well plate to 80% confluency in Ham's F12 containing 20% FBS at 37° C., 5% CO2. Subsequently, cells are washed extensively with 20 mM HEPES buffer containing 126 mM […], 1 mM MgCl2 and 4 mM KCl to remove serum components that might interfere with the assay. Cells are loaded with calcium sensing Fluo4NW dye in HEPES base buffer containing 0.1% BSA and lmg/ml glucose for 30 minutes to measure changes in intracellular calcium. The activities of the compounds are measured in FLIPR using 0.3 mM CaCl2 in 20 mM HEPES base buffer. The effectiveness of the compound to modulate receptor activity is determined by calculating the EC50 responses for that compound in an 8-point assay and plotted using GraphPad Prism 5.
The compounds prepared were tested using the above assay procedure and the results obtained are given below.

| Compound | EC50 |
| --- | --- |
| Cc1ccc(N2CC(CCCN[C@H](C)c3cccc4ccccc34)Cc3ccccc32)cc1OCC(=O)O (single isomer, unassigned) [Example 80b, hydrochloride] | 20 to 50 nM |
| Cc1ccc(C2C[C@H](CCN[C@H](C)c3cccc4ccccc34)Cc3ccccc32)cc1C(=O)O (single isomer, unassigned) [Example 27a, hydrochloride] | < 20 nM |
| Cc1cc(C2CC(N[C@H](C)c3cccc4ccccc34)Cc3ccccc32)ccc1C(=O)O (stereo partly drawn) [Example 23, 2-Methyl-4-(3-(((R)-1-(naphthalen-1-yl)ethyl)amino)-1,2,3,4-tetrahydronaphthalen-1-yl)benzoic acid hydrochloride] | 20 to 50 nM |

Results, then the compound that gave them:

| EC50 | Compound |
| --- | --- |
| 20 to 50 nM | COc1cc([C@@H](C)NC[C@@H]2Cc3ccccc3C(c3ccc(C)c(C(=O)O)c3)C2)ccc1F (single isomer, unassigned) [Example 16b, hydrochloride] |
| < 20 nM | COc1cc([C@@H](C)NC[C@@H]2Cc3ccccc3C(c3ccc(C)c(C(=O)O)c3)C2)ccc1F (single isomer, unassigned) [Example 16a, hydrochloride] |
| 20 to 50 nM | Cc1ccc(C2C[C@H](CN[C@H](C)c3ccc(F)c4ccccc34)Cc3ccccc32)cc1C(=O)O (single isomer, unassigned) [Example 19b, hydrochloride] |
